ChEMBL document CHEMBL5291721, “A preclinical secondary pharmacology resource illuminates target-adverse drug reaction associations of marketed drugs” (Nat Commun, 2023)

Assays:
[1] = molecular target: Acetylcholinesterase (Homo sapiens, UniProt P22303); assay type: functional
[2] = molecular target: T1, Alpha-1A adrenergic receptor (Homo sapiens, UniProt P35348); assay type: functional, cell-based
T1 sequence (P35348 whole entry): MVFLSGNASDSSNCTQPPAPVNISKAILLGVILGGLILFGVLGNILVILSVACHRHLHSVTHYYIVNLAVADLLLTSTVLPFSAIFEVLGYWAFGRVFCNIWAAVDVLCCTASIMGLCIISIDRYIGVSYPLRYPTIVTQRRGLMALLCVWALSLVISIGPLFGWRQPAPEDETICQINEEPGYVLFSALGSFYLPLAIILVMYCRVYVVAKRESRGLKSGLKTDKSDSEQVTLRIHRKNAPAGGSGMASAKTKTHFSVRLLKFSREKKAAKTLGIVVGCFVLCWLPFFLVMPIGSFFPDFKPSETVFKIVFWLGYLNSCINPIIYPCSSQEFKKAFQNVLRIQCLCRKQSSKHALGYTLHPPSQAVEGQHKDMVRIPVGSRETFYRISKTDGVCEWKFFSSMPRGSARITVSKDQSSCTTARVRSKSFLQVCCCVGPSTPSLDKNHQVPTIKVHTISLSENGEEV

[3] = molecular target: Prothrombin (Homo sapiens, UniProt P00734); assay type: functional
[4] = molecular target: Sodium-dependent dopamine transporter (Homo sapiens, UniProt Q01959)
[5] = molecular target: T2, Sodium-dependent serotonin transporter (Homo sapiens, UniProt P31645)
[6] = molecular target: Vasopressin V1a receptor (Homo sapiens, UniProt P37288)
[7] = molecular target: Vasopressin V2 receptor (Homo sapiens, UniProt P30518)
[8] = molecular target: T3, B2 bradykinin receptor (Homo sapiens, UniProt P30411)
T3 sequence (P30411 whole entry): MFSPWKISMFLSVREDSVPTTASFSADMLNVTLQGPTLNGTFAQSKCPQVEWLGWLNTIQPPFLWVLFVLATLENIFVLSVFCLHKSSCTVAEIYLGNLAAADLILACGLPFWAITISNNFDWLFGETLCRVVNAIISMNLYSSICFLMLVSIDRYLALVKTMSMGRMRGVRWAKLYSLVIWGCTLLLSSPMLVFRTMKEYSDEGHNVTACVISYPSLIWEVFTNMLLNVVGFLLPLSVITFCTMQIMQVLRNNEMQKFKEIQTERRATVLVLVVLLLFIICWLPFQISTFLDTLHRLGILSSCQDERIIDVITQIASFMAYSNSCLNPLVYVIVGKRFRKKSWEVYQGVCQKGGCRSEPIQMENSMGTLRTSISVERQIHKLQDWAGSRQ

[9] = molecular target: T4, Gastrin/cholecystokinin type B receptor (Homo sapiens, UniProt P32239)
T4 sequence (P32239 whole entry): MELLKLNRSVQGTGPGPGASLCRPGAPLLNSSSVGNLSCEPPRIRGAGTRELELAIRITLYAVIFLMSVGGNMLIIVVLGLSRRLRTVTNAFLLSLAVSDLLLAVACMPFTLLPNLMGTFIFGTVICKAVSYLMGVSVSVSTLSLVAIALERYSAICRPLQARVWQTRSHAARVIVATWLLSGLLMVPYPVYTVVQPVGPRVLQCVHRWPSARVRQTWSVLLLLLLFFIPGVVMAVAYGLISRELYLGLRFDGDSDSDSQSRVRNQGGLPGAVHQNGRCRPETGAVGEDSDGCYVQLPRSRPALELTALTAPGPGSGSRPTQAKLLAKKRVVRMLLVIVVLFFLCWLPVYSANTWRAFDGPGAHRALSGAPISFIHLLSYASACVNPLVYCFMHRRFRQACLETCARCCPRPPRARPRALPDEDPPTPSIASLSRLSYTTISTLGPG

[10] = molecular target: T5, Muscarinic acetylcholine receptor M2 (Homo sapiens, UniProt P08172); assay type: functional, cell-based
T5 sequence (P08172 whole entry): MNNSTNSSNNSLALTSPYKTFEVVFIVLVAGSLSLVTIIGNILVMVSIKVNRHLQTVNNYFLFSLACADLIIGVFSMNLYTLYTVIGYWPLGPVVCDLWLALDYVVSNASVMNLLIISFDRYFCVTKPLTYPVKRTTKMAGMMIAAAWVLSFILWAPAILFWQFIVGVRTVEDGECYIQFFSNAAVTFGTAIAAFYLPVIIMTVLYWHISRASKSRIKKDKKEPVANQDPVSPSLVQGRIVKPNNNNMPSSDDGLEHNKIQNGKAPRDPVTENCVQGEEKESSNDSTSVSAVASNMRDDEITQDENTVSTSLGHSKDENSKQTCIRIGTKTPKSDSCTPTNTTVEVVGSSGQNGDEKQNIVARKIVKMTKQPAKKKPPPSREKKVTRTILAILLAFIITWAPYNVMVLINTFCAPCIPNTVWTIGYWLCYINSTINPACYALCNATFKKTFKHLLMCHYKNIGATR

[11] = molecular target: T5, Muscarinic acetylcholine receptor M2; assay type: functional, cell-based; remark: listed apart in the source
[12] = molecular target: Cannabinoid receptor 1 (Homo sapiens, UniProt P21554); assay type: functional, cell-based
[13] = molecular target: T6, Endothelin-1 receptor (Homo sapiens, UniProt P25101)
T6 sequence (P25101 whole entry): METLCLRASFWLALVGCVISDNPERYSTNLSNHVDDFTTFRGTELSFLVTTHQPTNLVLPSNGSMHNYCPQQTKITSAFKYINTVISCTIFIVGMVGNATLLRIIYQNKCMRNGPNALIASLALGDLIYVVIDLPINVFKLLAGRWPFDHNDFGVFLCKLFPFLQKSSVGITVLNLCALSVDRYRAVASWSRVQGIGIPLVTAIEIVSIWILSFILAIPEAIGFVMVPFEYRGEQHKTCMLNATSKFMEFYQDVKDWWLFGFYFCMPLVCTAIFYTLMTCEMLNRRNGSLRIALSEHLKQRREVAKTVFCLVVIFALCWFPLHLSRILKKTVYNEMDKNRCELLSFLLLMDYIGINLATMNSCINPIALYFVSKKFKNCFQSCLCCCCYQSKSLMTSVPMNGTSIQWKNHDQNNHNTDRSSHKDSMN

[14] = molecular target: Gamma-aminobutyric acid receptor subunit alpha-1 (Rattus norvegicus, UniProt P62813)
[15] = molecular target: 5-hydroxytryptamine receptor 2A (Homo sapiens, UniProt P28223); assay type: functional, cell-based
[16] = molecular target: T2, Sodium-dependent serotonin transporter; remark: listed apart in the source
[17] = molecular target: T1, Alpha-1A adrenergic receptor; assay type: functional, cell-based; remark: listed apart in the source
Further: assay procedure not described here.

Sequence of Vasopressin V2 receptor (P30518 whole entry): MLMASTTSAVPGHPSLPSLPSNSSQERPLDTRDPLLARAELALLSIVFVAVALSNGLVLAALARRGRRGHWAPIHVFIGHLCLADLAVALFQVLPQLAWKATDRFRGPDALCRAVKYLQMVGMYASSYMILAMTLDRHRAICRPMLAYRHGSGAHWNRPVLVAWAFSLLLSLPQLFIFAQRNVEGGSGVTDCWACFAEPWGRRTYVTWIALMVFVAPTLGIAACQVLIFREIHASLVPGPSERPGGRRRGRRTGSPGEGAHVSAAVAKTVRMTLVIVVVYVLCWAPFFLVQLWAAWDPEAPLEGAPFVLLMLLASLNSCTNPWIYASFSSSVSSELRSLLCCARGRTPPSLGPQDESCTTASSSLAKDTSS
Sequence of Vasopressin V1a receptor (P37288 whole entry): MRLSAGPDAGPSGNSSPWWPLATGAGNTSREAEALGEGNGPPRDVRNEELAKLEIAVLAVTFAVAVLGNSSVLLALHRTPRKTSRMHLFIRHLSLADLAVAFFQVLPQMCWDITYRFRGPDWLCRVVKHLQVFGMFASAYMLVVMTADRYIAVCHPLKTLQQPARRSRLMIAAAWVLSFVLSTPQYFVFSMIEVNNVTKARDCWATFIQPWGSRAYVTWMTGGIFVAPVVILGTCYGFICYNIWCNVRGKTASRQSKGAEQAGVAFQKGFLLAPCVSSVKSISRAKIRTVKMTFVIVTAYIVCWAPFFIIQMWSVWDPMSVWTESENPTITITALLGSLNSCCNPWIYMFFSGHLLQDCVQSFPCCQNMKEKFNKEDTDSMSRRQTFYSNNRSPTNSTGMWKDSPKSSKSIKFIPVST
Sequence of Gamma-aminobutyric acid receptor subunit alpha-1 (P62813 whole entry): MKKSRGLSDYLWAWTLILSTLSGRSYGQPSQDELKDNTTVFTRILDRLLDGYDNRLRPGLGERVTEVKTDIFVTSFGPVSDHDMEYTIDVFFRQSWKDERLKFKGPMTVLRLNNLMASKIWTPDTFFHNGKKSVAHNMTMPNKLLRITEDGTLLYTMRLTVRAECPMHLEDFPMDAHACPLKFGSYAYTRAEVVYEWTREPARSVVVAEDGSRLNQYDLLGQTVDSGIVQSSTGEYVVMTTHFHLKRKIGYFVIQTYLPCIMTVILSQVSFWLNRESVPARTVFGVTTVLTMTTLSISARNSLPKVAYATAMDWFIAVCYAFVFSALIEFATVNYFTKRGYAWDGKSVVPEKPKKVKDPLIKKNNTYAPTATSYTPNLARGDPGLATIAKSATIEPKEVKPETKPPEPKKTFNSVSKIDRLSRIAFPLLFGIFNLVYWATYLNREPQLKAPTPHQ
T2 sequence (P31645 whole entry): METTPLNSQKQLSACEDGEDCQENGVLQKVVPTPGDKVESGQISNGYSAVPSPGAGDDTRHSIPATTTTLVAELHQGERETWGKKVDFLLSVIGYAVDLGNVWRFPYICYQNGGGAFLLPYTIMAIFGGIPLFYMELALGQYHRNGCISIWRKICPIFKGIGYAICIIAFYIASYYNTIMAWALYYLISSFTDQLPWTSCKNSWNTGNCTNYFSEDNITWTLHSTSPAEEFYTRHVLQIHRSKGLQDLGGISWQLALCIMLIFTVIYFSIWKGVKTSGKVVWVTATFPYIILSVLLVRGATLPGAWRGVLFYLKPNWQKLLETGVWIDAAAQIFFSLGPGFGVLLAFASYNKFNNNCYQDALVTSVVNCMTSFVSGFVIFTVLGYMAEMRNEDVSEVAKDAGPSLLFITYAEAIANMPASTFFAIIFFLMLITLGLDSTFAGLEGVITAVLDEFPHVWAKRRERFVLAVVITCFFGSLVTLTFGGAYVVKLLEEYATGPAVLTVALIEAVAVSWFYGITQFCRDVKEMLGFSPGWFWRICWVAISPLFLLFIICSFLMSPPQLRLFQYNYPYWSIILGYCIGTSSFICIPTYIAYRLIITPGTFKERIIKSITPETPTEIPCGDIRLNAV
Sequence of Acetylcholinesterase (P22303 whole entry): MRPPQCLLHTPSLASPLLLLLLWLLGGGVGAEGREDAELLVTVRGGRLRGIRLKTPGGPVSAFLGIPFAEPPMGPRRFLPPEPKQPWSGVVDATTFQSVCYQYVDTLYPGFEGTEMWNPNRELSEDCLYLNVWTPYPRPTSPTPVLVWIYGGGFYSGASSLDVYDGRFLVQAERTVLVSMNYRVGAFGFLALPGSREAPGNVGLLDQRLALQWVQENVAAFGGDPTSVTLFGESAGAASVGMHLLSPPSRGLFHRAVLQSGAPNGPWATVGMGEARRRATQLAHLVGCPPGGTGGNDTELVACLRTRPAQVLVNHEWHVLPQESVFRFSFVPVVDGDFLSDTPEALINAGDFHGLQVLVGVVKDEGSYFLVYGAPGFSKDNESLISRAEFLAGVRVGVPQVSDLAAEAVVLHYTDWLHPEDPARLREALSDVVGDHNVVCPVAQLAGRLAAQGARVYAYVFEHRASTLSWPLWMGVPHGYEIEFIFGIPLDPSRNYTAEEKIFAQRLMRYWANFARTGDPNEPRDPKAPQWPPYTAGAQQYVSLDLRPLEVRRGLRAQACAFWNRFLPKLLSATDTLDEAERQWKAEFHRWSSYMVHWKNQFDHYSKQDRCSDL
Sequence of Cannabinoid receptor 1 (P21554 whole entry): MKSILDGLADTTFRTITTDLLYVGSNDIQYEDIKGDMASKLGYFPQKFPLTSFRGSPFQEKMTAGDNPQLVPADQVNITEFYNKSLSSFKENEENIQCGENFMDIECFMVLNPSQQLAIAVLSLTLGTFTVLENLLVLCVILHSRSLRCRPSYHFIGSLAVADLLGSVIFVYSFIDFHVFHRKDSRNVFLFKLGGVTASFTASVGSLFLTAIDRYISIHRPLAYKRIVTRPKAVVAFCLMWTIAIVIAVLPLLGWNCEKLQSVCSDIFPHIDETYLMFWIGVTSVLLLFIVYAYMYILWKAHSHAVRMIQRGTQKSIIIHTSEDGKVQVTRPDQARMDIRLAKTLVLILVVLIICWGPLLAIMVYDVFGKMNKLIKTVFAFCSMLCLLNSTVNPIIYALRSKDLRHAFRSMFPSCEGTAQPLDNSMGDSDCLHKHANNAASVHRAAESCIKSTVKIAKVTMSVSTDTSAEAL
Sequence of Sodium-dependent dopamine transporter (Q01959 whole entry): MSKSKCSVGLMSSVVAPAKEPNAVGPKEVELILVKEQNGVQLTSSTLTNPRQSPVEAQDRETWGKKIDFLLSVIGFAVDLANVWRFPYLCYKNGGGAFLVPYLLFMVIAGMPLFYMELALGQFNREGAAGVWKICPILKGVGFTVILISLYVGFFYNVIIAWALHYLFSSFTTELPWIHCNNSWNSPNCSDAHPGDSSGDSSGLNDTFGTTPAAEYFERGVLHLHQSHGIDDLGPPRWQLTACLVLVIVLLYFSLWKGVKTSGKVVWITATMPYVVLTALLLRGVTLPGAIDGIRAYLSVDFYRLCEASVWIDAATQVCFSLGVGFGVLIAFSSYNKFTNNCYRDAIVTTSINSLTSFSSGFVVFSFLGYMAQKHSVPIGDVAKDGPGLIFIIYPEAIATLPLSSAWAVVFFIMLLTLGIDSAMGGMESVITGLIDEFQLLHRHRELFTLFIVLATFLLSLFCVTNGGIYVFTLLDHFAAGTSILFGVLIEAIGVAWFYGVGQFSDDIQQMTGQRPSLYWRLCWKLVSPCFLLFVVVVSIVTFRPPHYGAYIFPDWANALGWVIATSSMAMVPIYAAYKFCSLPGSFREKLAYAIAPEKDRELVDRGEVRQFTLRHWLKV
Sequence of 5-hydroxytryptamine receptor 2A (P28223 whole entry): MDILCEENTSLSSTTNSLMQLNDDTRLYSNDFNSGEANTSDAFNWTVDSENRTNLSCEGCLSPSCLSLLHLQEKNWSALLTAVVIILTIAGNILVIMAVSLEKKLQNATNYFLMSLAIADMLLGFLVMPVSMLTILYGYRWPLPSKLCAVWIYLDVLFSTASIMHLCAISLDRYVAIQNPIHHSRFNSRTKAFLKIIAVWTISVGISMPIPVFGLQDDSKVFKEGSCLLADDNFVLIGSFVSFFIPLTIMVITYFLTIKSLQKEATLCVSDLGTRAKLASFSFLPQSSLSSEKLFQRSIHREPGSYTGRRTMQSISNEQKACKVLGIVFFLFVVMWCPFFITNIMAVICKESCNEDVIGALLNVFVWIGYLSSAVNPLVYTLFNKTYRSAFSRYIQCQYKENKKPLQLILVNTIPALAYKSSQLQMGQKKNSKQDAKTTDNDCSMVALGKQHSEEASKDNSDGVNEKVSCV

Row | AC50 [6] | AC50 [7] | AC50 [8] | AC50 [9] | AC50 [10] | AC50 [11] | AC50 [12] | AC50 [13] | AC50 [14] | AC50 [15] | AC50 [16] | AC50 [17] | Compound | AC50 [1] | AC50 [2] | AC50 [3] | AC50 [4] | AC50 [5]
1 | – | – | – | – | – | – | – | – | – | – | – | – | OC[C@H]1NC[C@H](O)[C@@H](O)[C@H]1O | > 30 µM | > 30 µM | > 30 µM | > 30 µM | > 30 µM
2 | – | – | – | – | – | – | – | – | – | – | – | – | O=C(O)[C@@H](S)[C@@H](S)C(=O)O | > 30 µM | – | 2.64 µM | > 30 µM | > 30 µM
3 | – | – | – | – | – | – | – | – | – | – | – | – | CC#CC(=O)N1CCC[C@H]1c1nc(-c2ccc(C(=O)Nc3ccccn3)cc2)c2c(N)nccn12 [ACALABRUTINIB] | > 30 µM | > 30 µM | > 30 µM | > 30 µM | > 30 µM
4 | – | – | – | – | – | – | – | – | – | – | – | – | C=CCOc1ccc(CC(=O)O)cc1Cl [ALCLOFENAC] | > 30 µM | > 30 µM | > 30 µM | > 30 µM | > 30 µM
5 | > 30 µM | > 30 µM | > 30 µM | > 30 µM | > 30 µM | > 30 µM | > 30 µM | > 30 µM | > 30 µM | 13 µM | > 30 µM | – | CN(C)CCc1c[nH]c2ccc(CS(=O)(=O)N3CCCC3)cc12 [ALMOTRIPTAN] | – | – | – | – | –
6 | > 30 µM | > 30 µM | > 30 µM | > 30 µM | > 30 µM | 26 µM | > 30 µM | > 30 µM | – | > 30 µM | 3 µM | > 30 µM | CN(C)CCOC(c1ccc(Cl)cc1)c1ccccn1 (configuration not stated) [CARBINOXAMINE] | – | – | – | – | –
7 | > 30 µM | > 30 µM | > 30 µM | > 30 µM | > 30 µM | > 30 µM | > 30 µM | > 30 µM | > 30 µM | > 30 µM | > 30 µM | > 30 µM | CCN(CC)CCn1c(=O)c(Cc2ccc(OC)cc2)nc2ccccc21 [CAROVERINE] | – | – | – | – | –
8 | – | – | – | – | – | – | – | – | – | – | – | – | NC(=O)C1(N2CCCCC2)CCN(CCCN2c3ccccc3CCc3ccccc32)CC1 [CARPIPRAMINE] | > 30 µM | – | > 30 µM | 2.94 µM | 2.73 µM
9 | – | – | – | – | – | – | – | – | – | – | – | – | CN1CCN(C(c2ccccc2)c2ccc(Cl)cc2)CC1 (configuration not stated) [CHLORCYCLIZINE] | > 30 µM | 4.86 µM | > 30 µM | 0.225 µM | 15.4 µM
10 | > 30 µM | > 30 µM | > 30 µM | > 30 µM | > 30 µM | > 30 µM | > 30 µM | > 30 µM | 29 µM | > 30 µM | 20 µM | > 30 µM | CC(C)/N=c1\cc2n(-c3ccc(Cl)cc3)c3ccccc3nc-2cc1Nc1ccc(Cl)cc1 [CLOFAZIMINE] | – | – | – | – | –
11 | – | – | – | – | – | – | – | – | – | – | – | – | CCCCCCCCCCCCCCCC(=O)OC[C@H](COP(=O)([O-])OCC[N+](C)(C)C)OC(=O)CCCCCCCCCCCCCCC [COLFOSCERIL PALMITATE] | > 30 µM | > 30 µM | > 30 µM | > 30 µM | > 30 µM
12 | – | – | – | – | – | – | – | – | – | – | – | – | CC(C)Nc1cccnc1N1CCN(C(=O)c2cc3cc(NS(C)(=O)=O)ccc3[nH]2)CC1 [DELAVIRDINE] | > 30 µM | > 30 µM | > 30 µM | > 30 µM | > 30 µM
13 | – | – | – | – | – | – | – | – | – | – | – | – | C[C@@H](CN1CC(=O)NC(=O)C1)N1CC(=O)NC(=O)C1 [DEXRAZOXANE] | > 30 µM | > 30 µM | > 30 µM | > 30 µM | > 30 µM
14 | > 30 µM | > 30 µM | > 30 µM | > 30 µM | > 30 µM | > 30 µM | > 30 µM | > 30 µM | > 10 µM | > 30 µM | > 30 µM | > 30 µM | C[C@]12CCC(=O)C=C1CC[C@H]1[C@@H]3CC[C@](O)(C(=O)CO)[C@@]3(C)C[C@H](O)[C@@]12F [FLUDROCORTISONE] | – | – | – | – | –
15 | > 30 µM | > 30 µM | > 30 µM | > 30 µM | > 30 µM | > 30 µM | > 30 µM | > 30 µM | > 30 µM | > 30 µM | > 30 µM | – | CCOC(=O)Nc1ccc(NCc2ccc(F)cc2)nc1N [FLUPIRTINE] | – | – | – | – | –
16 | > 10 µM | > 30 µM | > 30 µM | > 30 µM | > 10 µM | > 10 µM | > 30 µM | > 30 µM | > 10 µM | > 30 µM | > 10 µM | 9.67 µM | OCCOCCN1CCN(C(c2ccccc2)c2ccc(Cl)cc2)CC1 (configuration not stated) [HYDROXYZINE] | – | – | – | – | –
17 | > 30 µM | > 30 µM | > 10 µM | > 30 µM | > 30 µM | > 30 µM | > 30 µM | > 30 µM | – | > 30 µM | > 30 µM | > 30 µM | N[C@@H](Cc1cc(I)c(Oc2cc(I)c(O)c(I)c2)c(I)c1)C(=O)O [LEVOTHYROXINE] | – | – | – | – | –
18 | > 30 µM | > 30 µM | > 30 µM | > 30 µM | > 30 µM | > 30 µM | > 30 µM | > 30 µM | > 30 µM | > 30 µM | > 30 µM | – | CC(=O)SCC(Cc1ccccc1)C(=O)NCC(=O)OCc1ccccc1 (configuration not stated) [RACECADOTRIL] | – | – | – | – | –

Row | Compound | AC50 [6] | AC50 [7] | AC50 [8] | AC50 [9] | AC50 [10] | AC50 [11] | AC50 [12] | AC50 [13] | AC50 [14] | AC50 [15] | AC50 [16] | AC50 [17] | AC50 [1] | AC50 [2] | AC50 [3] | AC50 [4] | AC50 [5]
19 | CC[N+](CC)(CCNC(=O)C(=O)NCC[N+](CC)(CC)Cc1ccccc1Cl)Cc1ccccc1Cl [AMBENONIUM] | > 30 µM | > 30 µM | > 30 µM | > 30 µM | > 30 µM | 2.2 µM | > 30 µM | > 30 µM | > 30 µM | > 30 µM | 6.1 µM | – | – | – | – | – | –
